From US6586437B2, “(S)-hydroxynefazodone antipsychotic therapy” (Sepracor Inc., priority 1999, dated 2003)
Where a name gives a salt, the structure may show the parent alone.

Assays:
[1] = target: T1, norepinephrine uptake, rat hypothalamus synaptosomes (Rattus norvegicus, UniProt Q9WTR4); experiment: Norepinephrine uptake functional assay (synaptosomes); assay type: biochemical, male Wistar rat; details: [3H]-norepinephrine, read-out: Monoamine Neuronal Transport IC50, NE uptake
T1 construct: synaptosomes isolated at Cerep in a 0.32 M sucrose buffer from a male Wistar rat hypothalamus; from tissue; host or cells: male Wistar rat hypothalamus synaptosomes
T1 sequence (Q9WTR4 1-597): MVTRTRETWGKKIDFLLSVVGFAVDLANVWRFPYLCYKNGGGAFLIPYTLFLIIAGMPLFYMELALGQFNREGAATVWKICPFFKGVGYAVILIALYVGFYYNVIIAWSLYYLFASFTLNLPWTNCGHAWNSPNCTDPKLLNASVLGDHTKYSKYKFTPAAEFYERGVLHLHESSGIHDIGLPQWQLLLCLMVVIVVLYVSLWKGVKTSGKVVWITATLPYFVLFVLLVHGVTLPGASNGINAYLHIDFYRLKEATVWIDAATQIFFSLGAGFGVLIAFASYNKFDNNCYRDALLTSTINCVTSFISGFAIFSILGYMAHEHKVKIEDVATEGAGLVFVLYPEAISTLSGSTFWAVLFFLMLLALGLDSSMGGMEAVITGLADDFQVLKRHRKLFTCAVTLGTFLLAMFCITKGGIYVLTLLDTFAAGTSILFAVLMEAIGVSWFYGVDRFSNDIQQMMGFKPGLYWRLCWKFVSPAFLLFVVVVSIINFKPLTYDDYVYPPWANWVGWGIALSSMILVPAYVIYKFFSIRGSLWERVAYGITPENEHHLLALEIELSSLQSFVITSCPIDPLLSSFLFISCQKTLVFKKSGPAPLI
Procedure: Norepinephrine Uptake Functional Assay
Characterization of norepinephrine uptake is performed using synaptosomes isolated at Cerep in a 0.32 M sucrose buffer from a male Wistar rat hypothalamus. The uptake of radiolabeled norepinephrine by synaptosomes (100 μg of proteins/point) is allowed by incubating them for 20 minutes at 37° C. in presence of test compounds and [3H]-norepinephrine (0.1 μCi/point). The experiment is performed in a deep well.
Synaptosomes and [3H]-norepinephrine are prepared in a Krebs buffer pH 7.4 containing 25 mM NaHCO3, 11 mM glucose and 50 μM ascorbic acid. This incubation buffer is oxygenated during 5 minutes before incubation. Basal control is incubated for 20 minutes at 4° C. in order to avoid any uptake. Following this incubation the uptake is stopped by filtration through an “unifilter 96-wells GFB ” Packard plate washed with Krebs buffer containing 25 mM NaHCO3 in order to eliminate the free [3H]-norepinephrine. The radioactivity associated to the synaptosomes retained onto the unifilter corresponding to the uptake is then measured with a microplate scintillation counter Topcount, Packard using a scintillation liquid microscint 0, Packard.
[See Perovics and Müller, op.cit. (1995).]

[2] = target: α1 Receptor; experiment: α1 receptor binding; details: read-out: α1 Receptor Binding IC50, Alpha1
[3] = cited from earlier work
[4] = tested on: beta adrenergic receptors; details: in vitro binding studies; cited from earlier work
[5] = target: T2, 5-HT1A receptors (Homo sapiens, UniProt P08908); details: in vitro binding studies; cited from earlier work
T2 sequence (P08908 1-422): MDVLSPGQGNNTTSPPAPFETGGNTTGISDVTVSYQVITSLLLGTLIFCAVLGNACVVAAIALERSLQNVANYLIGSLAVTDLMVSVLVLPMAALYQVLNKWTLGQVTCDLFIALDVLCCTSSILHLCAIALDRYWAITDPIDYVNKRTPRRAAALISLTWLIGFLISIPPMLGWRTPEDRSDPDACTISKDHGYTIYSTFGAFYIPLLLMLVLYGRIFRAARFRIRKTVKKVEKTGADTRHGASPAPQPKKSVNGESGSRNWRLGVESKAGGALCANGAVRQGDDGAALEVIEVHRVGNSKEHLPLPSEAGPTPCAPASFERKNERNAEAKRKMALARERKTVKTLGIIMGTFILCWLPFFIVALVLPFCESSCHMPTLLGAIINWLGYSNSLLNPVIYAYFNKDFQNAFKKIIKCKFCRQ

[6] = tested on: cholinergic receptors; details: in vitro binding studies; cited from earlier work
[7] = tested on: alpha2 adrenergic receptors; details: in vitro binding studies; cited from earlier work
[8] = tested on: alpha1-adrenergic receptors; details: cited from earlier work
[9] = tested on: dopaminergic receptors; details: in vitro binding studies; cited from earlier work
[10] = tested on: benzodiazepine receptors; details: in vitro binding studies; cited from earlier work

Q: With `CC(O)c1nn(CCCN2CCN(c3cccc(Cl)c3)CC2)c(=O)n1CCOc1ccccc1` (racemic) [(RS)—OH, 2-[3-[4-(3-chlorophenyl)1-piperazinyl]propyl]-5-(1-hydroxyethyl)-2,4-dihydro-4-(phenoxyethyl)-3H-1,2,4-triazol-3-one] as the molecule, how does the IC50 [1] read?
A: 1 µM

Q: What about the IC50 [2] of the same molecule?
A: 0.381 µM

Q: Which IC50 [1] does the source give for `C[C@@H](O)c1nn(CCCN2CCN(c3cccc(Cl)c3)CC2)c(=O)n1CCOc1ccccc1` [(R)—OH, (R)-Hydroxynefazodone hydrochloride] here?
A: 1.2 µM

Q: And the IC50 [2]?
A: 0.367 µM

Q: With `C[C@H](O)c1nn(CCCN2CCN(c3cccc(Cl)c3)CC2)c(=O)n1CCOc1ccccc1` [(S)—OH, (S)-2-{3-[4-(3-Chlorophenyl)-1-piperazinyl]propyl}-4-(2-phenoxyethyl)-5-[1-(hydroxy)-ethyl]-2,4-dihydro-[1,2,4]triazol-3-one] as the molecule, how does the IC50 [1] read?
A: 1.5 µM

Q: And the IC50 [2]?
A: 0.419 µM

Q: For `CCc1nn(CCCN2CCN(c3cccc(Cl)c3)CC2)c(=O)n1CCOc1ccccc1` [Nefazodone hydrochloride], which absolute bioavailability ([3]; low and variable because of extensive metabolism) is on record?
A: about 20%

Q: Which “affinity for beta adrenergic receptors” value [4] does the source give for `CCc1nn(CCCN2CCN(c3cccc(Cl)c3)CC2)c(=O)n1CCOc1ccccc1` [Nefazodone] here?
A: no significant affinity

Q: What about the half-life ([3]; in vivo) of the same molecule?
A: 2 to 4 h

Q: And the “time of peak plasma concentrations” value ([3]; in vivo)?
A: about one

Q: And the “affinity for 5-HT1A receptors” value [5]?
A: no significant affinity

Q: What about the “affinity for cholinergic receptors” value [6] of the same molecule?
A: no significant affinity

Q: And the “affinity for alpha2 adrenergic receptors” value [7]?
A: no significant affinity

Q: What about the “effect on alpha1-adrenergic receptors” value [8] of the same molecule?
A: antagonize

Q: What about the IC50 [2] of the same molecule?
A: 0.306 µM

Q: What about the “affinity for dopaminergic receptors” value [9] of the same molecule?
A: no significant affinity

Q: And the “affinity for benzodiazepine receptors” value [10]?
A: no significant affinity
